Here are results for three compounds from patent US20080318789A1, “Seed germination acceleration” (priority 2007, published 2008).

The assay deals with canola (cv. Westar) seed. The assay can be described thus: Petri plate germination study of treated canola seed at 6° C. The class given is in vivo. The conditions noted are these: petri plates at 6° C., n = 3 plates of 15 seeds; for Percent germinated Day 5: day 5 after treatment; for Percent germinated Day 6: day 6 after treatment; for Percent germinated Day 7: day 7 after treatment. How it is done: For all seed treatments, 1 ppm active ingredient refers to 1 microgram active ingredient per gram of seed. For these studies, GA3, GA4/7, 6BA or CPPU were each dispensed into a 15 ml centrifuge tube, and 2.5 ml of de-ionized water was then added to each tube. The solution was mixed on a vortex mixer and 0.015 ml of this solution was then placed in another 15 ml. centrifuge tube along with 0.6 grams of canola seeds (cv. Westar). Seeds were mixed by rotating 360° on a Labquake Rotisserie for 30 minutes. To simulate commercial seed treatments, the amount of solutions was just sufficient to wet the seeds. After treating, the seeds were placed in weigh boats for overnight drying. Petri plate studies: Each standard petri plate (100 mm×50 mm) contained 1 blue Anchor germination circle (3¼ inches in diameter) drenched with 8 ml of de-ionized water cooled to 6° C., Each treatment consisted of 3 petri plates of 15 seeds each. After plating, the petri plates were placed in a Nalgene plastic container pre-cooled to 6° C. The plastic container containing the petri plates was placed in a growth chamber at 6° C. with a 16-hour light cycle for the duration of the study. Seeds were visually observed daily for germination as determined by emergence of root from the seed coat. Canola seeds (cv. Westar) were treated with solutions containing GA4/7, GA3, 6BA, or CPPU. The solutions were sufficient only to wet the seeds. The amount of applied GA4/7 ([…]), GA3 (0.5, 5 or 50 ppm), 6BA (5 or 50 ppm), or CPPU (5 or 50 ppm) is expressed as ppm or micrograms of compound per gram of seed.

Structures are written as SMILES.

As to `c1ccc(CNc2ncnc3nc[nH]c23)cc1` [6BA], where the note is “seed treatment 5 ppm”, the “Percent germinated Day 5” value is listed as 0%, the “Percent germinated Day 6” value is 0% and the “Percent germinated Day 7” value is reported as 0%. Under “seed treatment 50 ppm”, the “Percent germinated Day 5” value was determined as 0%, the “Percent germinated Day 6” value turned out to be 0.3% and the “Percent germinated Day 7” value was determined as 0.3%.
For the compound `O=C(Nc1ccccc1)Nc1ccnc(Cl)c1` [CPPU, 1-(2-chloro-4-pyridyl)-3-phenylurea], where the note is “seed treatment 5 ppm”, the “Percent germinated Day 5” value worked out at 0%, the “Percent germinated Day 6” value turned out to be 0% and the “Percent germinated Day 7” value was 0.3%. In addition, where the note is “seed treatment 50 ppm”, the “Percent germinated Day 5” value worked out at 0%, the “Percent germinated Day 6” value was 0% and the “Percent germinated Day 7” value was 0%.
As for `C=C1C[C@]23C[C@@]1(O)CC[C@H]2[C@@]12C=C[C@H](O)[C@@](C)(C(=O)O1)[C@H]2[C@@H]3C(=O)O` [GA3, (1α,2β,4aα,4bβ,10β)-2,4-a,7-trihydroxy-1-methyl-8-methylenegibb-3-ene-1,10-dicarboxylic acid 1,4a-lactone], where the note is “seed treatment 0.5 ppm”, the “Percent germinated Day 5” value worked out at 0%, the “Percent germinated Day 6” value turned out to be 0.3% and the “Percent germinated Day 7” value stood at 0.3%. Further, under “seed treatment 5 ppm”, the “Percent germinated Day 5” value is given as 0%, the “Percent germinated Day 6” value amounted to 0.3% and the “Percent germinated Day 7” value is 0.7%. Besides, under “seed treatment 50 ppm”, the “Percent germinated Day 5” value was 0.3%, the “Percent germinated Day 6” value worked out at 2.7% and the “Percent germinated Day 7” value came to 5.0%.
